15 compounds from PubChem BioAssay (NCI) can be followed below.

The structures appear in SMILES notation.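 Dose response: 5 concentrations. Exposure: 48 h. Format: 96-well plates. Endpoint: linear interpolation; highest concentration if not reached. The concentration for full growth arrest is given as TGI.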 Where a SMILES comes first, the peptide text is derived from it. Bridges are numbered along the chain shown (N, C = ends). [ ]: non-standard residue; d: D form. The star is where a group is joined. PhAc = O=C(Cc1ccccc1)*

Common to all, as to experiment: NCI-60 cell line screen, 48 h
Experiment [1] relates to A549 NSCLC.
In experiment [2] the test system is HCT-116 colon.
In experiment [3] the test system is HL-60(TB) leukemia.
Experiment [4] deals with HT29 colon.
Experiment [5] deals with KM12 colon.
The subject of experiment [6] is LOX IMVI melanoma.
Experiment [7] relates to MALME-3M melanoma.
The test system of experiment [8] is MCF7 breast.
Experiment [9] relates to NCI-H226 lung.
For experiment [10], the system named is NCI-H460 lung.
The subject of experiment [11] is OVCAR-4 ovarian.
In experiment [12] the test system is OVCAR-5 ovarian.
Experiment [13] deals with RPMI-8226 leukemia.
The subject of experiment [14] is SF-268 CNS.
Experiment [15] relates to SK-MEL-28 melanoma.
Experiment [16] concerns SN12C renal.
Experiment [17] has as its system SNB-75 CNS.
In experiment [18] the test system is U251 CNS.
In experiment [19] the test system is UACC-257 melanoma.
Experiment [20] relates to HOP-92 NSCLC.

With `O=C1Oc2ccccc2C(=O)/C1=C/N1C(=O)/C(=C/c2ccc3c(c2)OCO3)SC1=S`, the TGI in experiment [1] was 35.4 µM; in [2] it was over 51.2 µM; in experiment [3] it was over 64.4 µM; in experiment [4], 35.9 µM; in experiment [5] it was 32 µM; in [6] it was over 58.8 µM. In addition, the TGI in experiment [7] was 44.8 µM; in experiment [8] it was over 58.4 µM; in [9] it was 34.5 µM; in experiment [10], 32.4 µM; in [11] it was 47.9 µM; in experiment [12] it was 30.2 µM. For the same compound, the TGI in experiment [13] was determined as 38.3 µM; in experiment [14], 32.6 µM; in experiment [15] it was 36.8 µM; in [16], 51.6 µM; in experiment [17], 19.2 µM; in experiment [18], 15 µM. Moreover, the TGI in experiment [19] came out at 51.5 µM.
Turning to `CC1=[N+]([O-])C(C)(C)N(N=O)C1(C)C`, the TGI in experiment [1], in experiment [2], in experiment [3], in experiment [20], in experiment [4] and in experiment [5] was over 10 µM in each case. Moreover, the TGI in experiment [7], in experiment [8], in experiment [9], in experiment [10], in [11] and in experiment [12] was over 10 µM in each case. In addition, the TGI in [13], in experiment [14], in [16], in experiment [18] and in [19] was over 10 µM throughout.
For `O=C(Cc1ccccc1)N[C@@H]1COC(=O)[C@@H]2CCCN2C(=O)[C@@H]2CCCN2C1=O` (PhAc-[dS]-Pro-Pro; ester 1-C), the TGI in experiment [1], in [2], in [3], in experiment [20], in experiment [4] and in [5] was over 100 µM in each case. Besides, the TGI in experiment [6], in [7], in [8], in [10], in experiment [11] and in experiment [12] was over 100 µM in each case. In addition, the TGI in experiment [14], in experiment [15], in experiment [16] and in [19] was over 100 µM in each case.
For the compound `CC(C)(C)OC(=O)[C@@H]1CCC(=S)N1Cc1ccccc1`, the TGI in experiment [1], in [2], in experiment [20], in experiment [5], in experiment [6] and in experiment [7] was over 100 µM throughout. The TGI in experiment [8], in [9], in experiment [10], in experiment [11], in experiment [12] and in [13] was over 100 µM throughout. Further, the TGI in experiment [15], in [16], in experiment [17], in experiment [18] and in [19] was over 100 µM each time.
For the compound `C1=Nc2ccc(cc2)N=Cc2ccccc2OCc2cccc(n2)COc2ccccc21`, the TGI in experiment [1], in experiment [2], in experiment [3], in [20], in [4] and in [5] was over 100 µM each time. Moreover, the TGI in [6], in experiment [7], in [8], in [9], in experiment [10] and in [11] was over 100 µM throughout. The TGI in experiment [12], in experiment [16], in [18] and in experiment [19] was over 100 µM in each case.
On to `CC1=CC=C2c3ccccc3C=CN2C(=O)C1`, for which the TGI in experiment [1] is over 100 µM; in experiment [2], over 100 µM; in experiment [3] it was 41.2 µM; in experiment [4], over 100 µM; in experiment [5], over 100 µM; in experiment [6], over 100 µM. The TGI in [7], in experiment [8], in [9], in experiment [10], in experiment [11] and in experiment [12] was over 100 µM each time. The TGI in experiment [13], in experiment [14], in experiment [15], in experiment [16], in experiment [17] and in [18] was over 100 µM in each case. Moreover, the TGI in experiment [19] was over 100 µM.
In the case of `CCOC(=O)N1CC2(C)C=CC1C(C(=O)OC)C2` (configuration not stated), the TGI in experiment [1], in [2], in experiment [3], in experiment [4], in [5] and in experiment [6] was over 100 µM throughout. Besides, the TGI in experiment [7], in experiment [8], in [9], in experiment [10], in experiment [11] and in [12] was over 100 µM in each case. The TGI in experiment [13], in [14], in experiment [15], in experiment [16], in experiment [17] and in experiment [18] was over 100 µM each time. In experiment [19], the TGI is over 100 µM.
Consider `CC(=O)OCc1ccc2oc(=O)c(C(=O)Oc3cccc(Cl)c3)cc2c1`, for which the TGI was over 100 µM in experiment [1]; 54.5 µM in experiment [2]; 43.5 µM in [20]; 80.2 µM in experiment [4]; over 100 µM in experiment [5]; over 100 µM in experiment [6]. Also, the TGI in experiment [7] was over 100 µM; in experiment [8], 61.6 µM; in experiment [9], over 100 µM; in experiment [10], over 100 µM; in experiment [11] it was over 100 µM; in [12] it was over 100 µM. The TGI in experiment [13], in experiment [14], in experiment [15], in [16], in experiment [17] and in experiment [18] was over 100 µM each time. Also, the TGI in experiment [19] is over 100 µM.
In the case of `NC1OC(COC(=O)c2ccccc2)C(O)C(OC(=O)c2ccccc2)C1OC(=O)c1ccccc1` (configuration not stated), the TGI in [1] came to 48 µM; in [2], 34.2 µM; in experiment [20], 59.1 µM; in experiment [4] it was 32.5 µM; in [6], 34.7 µM; in [7], 36.3 µM. Further, the TGI in experiment [8] is 68.2 µM; in experiment [9] it was 43.1 µM; in [10] it was 27.9 µM; in experiment [11], over 100 µM; in [12], 48.1 µM; in experiment [13] it was over 100 µM. For the same compound, the TGI in experiment [14] is 67.4 µM; in experiment [15], 42.7 µM; in [16] it was 50.9 µM; in experiment [17], 39.8 µM; in [18] it was 34.2 µM; in experiment [19], 47.2 µM.
`C=CC(CBr)CCC(Br)C(C)(C)Br` (configuration not stated): the TGI in experiment [1], in [2], in experiment [20], in experiment [4], in experiment [5] and in [7] was over 10 µM in each case. In addition, the TGI in experiment [8], in experiment [9], in [10], in [11], in experiment [12] and in experiment [13] was over 10 µM each time. Further, the TGI in experiment [14], in experiment [15], in experiment [16], in experiment [17], in experiment [18] and in experiment [19] was over 10 µM in each case.
For the compound `CCOC(=O)[C@@H]1OC(c2ccccc2)O[C@H]1C(=O)OCC`, the TGI in experiment [1], in experiment [2], in [20], in experiment [4], in experiment [5] and in [6] was over 100 µM each time. Further, the TGI in experiment [7], in experiment [8], in experiment [9], in experiment [11], in experiment [12] and in experiment [13] was over 100 µM in each case. Besides, the TGI in experiment [14], in [15], in experiment [16], in experiment [17], in [18] and in experiment [19] was over 100 µM throughout.
Regarding `Cc1ccc2c3c(cnc2n1)C(=O)OCCN3C`, the TGI in experiment [1], in experiment [2], in experiment [3], in experiment [20], in experiment [4] and in experiment [5] was over 100 µM in each case. For the same compound, the TGI in experiment [6], in experiment [8], in experiment [10], in experiment [11], in experiment [12] and in experiment [14] was over 100 µM in each case. For the same compound, the TGI in experiment [15], in experiment [16], in [18] and in experiment [19] was over 100 µM each time.
For `CCC(=O)C1(N2CCOCC2)CCN(CCCC(=O)c2ccc(F)cc2)CC1`, the TGI in experiment [1], in [2], in experiment [3], in experiment [4], in experiment [5] and in experiment [6] was over 100 µM in each case. The TGI in [7], in experiment [8], in experiment [9], in [10], in experiment [11] and in experiment [12] was over 100 µM in each case. Moreover, the TGI in experiment [13], in [14], in experiment [15], in experiment [16], in experiment [17] and in [18] was over 100 µM each time.
In the case of `O=c1[nH]c(=O)n(C2OC(CO)C(O)C2O)c2ncc(-c3ccc(-c4ccccc4)cc3)nc12` (configuration not stated), the TGI in experiment [1], in [2], in experiment [20], in [4], in experiment [5] and in experiment [6] was over 20 µM throughout. For the same compound, the TGI in [7], in experiment [8], in experiment [9], in experiment [10], in [11] and in experiment [12] was over 20 µM throughout. In addition, the TGI in experiment [13], in experiment [14], in [16], in experiment [17], in experiment [18] and in experiment [19] was over 20 µM in each case.
`COc1cccc(C(=O)Nc2c3ccccc3nc3ccccc23)c1OC`: the TGI in experiment [1], in experiment [2], in [3], in experiment [4], in [5] and in experiment [6] was over 100 µM each time. Also, the TGI in experiment [7], in experiment [8], in experiment [9], in experiment [10], in experiment [11] and in experiment [12] was over 100 µM throughout. Moreover, the TGI was over 100 µM in experiment [13]; over 100 µM in experiment [14]; over 100 µM in [15]; over 100 µM in [16]; 71 µM in experiment [17]; over 100 µM in experiment [18]. In addition, the TGI in experiment [19] is over 100 µM.
